The values below come from patent publication US10458911B2, “Method for searching candidate material for anti-cancer drug using localized surface plasmon resonance” (KOREA UNIVERSITY RESEARCH AND BUSINESS FOUNDATION, priority 2015, dated 2019).

The structures appear in SMILES notation.

Experiment [1] addresses T1, STAT3 protein extracted from MCF-7 cells (Homo sapiens, UniProt P40763).
T1 construct: Phosphorylated STAT3 protein (10 μg mL^−1) extracted from Michigan Cancer Foundation-7 (MCF-7) cells was used; endogenous in cells; host or cells: MCF-7
Kind of experiment: Single nanoplasmonic biosensor (LSPR shift), dimerization step with STAT3 extracted from MCF-7 cells treated with STA-21. It is filed as cell-based. The procedure: Subsequently, the phosphorylation and the dimerization of STAT3 were conducted as follows. In the first step, after ˜50 nm AuNPs were immobilized onto a coverslip slide, all unbound AuNPs and contaminants were removed, and the surface of the amino-modified AuNPs was cleaned by injecting nuclease-free water for 1 h. In the second step, after STAT3 protein was conjugated to the AuNPs, 300 μL, of the STAT3 solution ([…] in 50 mM Tris-HCl buffer, pH 7.4, containing 150 mM NaCl and 25% glycerol) containing STAT3 protein (10 μg mL^−1) was injected into the immobilized AuNPs and incubated overnight. […]
(§1) The changes in the LSPR spectra of the single amino-modified AuNPs in response to STAT3 protein conjugation, STAT3 phosphorylation, dimerization or inhibition of STAT3 dimerization were recorded. […] The wavelength shift (Δλmax) was calculated using the following formula: λmax (after reaction)−λmax (before reaction).
The MCF-7 cells, human breast tumor cell lines, were cultured in Dulbecco's modified Eagle's medium (DMEM, Thermo Scientific, USA) containing 10% (v/v) fetal bovine serum (FBS, Thermo Scientific, USA) and 3% penicillin/streptomycin (Thermo Scientific, USA) at 37° C. in a humidified atmosphere containing 5% CO2. The inocula of cells were determined using a hemacytometer with a vital dye, trypan blue. […]

The target in experiment [2] is T2, STAT3 protein (Homo sapiens, UniProt P40763). The experiment in a line: Native polyacrylamide gel electrophoresis of STAT3 dimerization and its inhibition. The settings on record: lane 4, with STA-21; 167 kDa dimer without inhibitor (lane 3); FIG. 5A. It is filed as biochemical. From the text: Analysis of STAT3 dimerization and inhibition of STAT3 dimerization was confirmed by native polyacrylamide gel electrophoresis on 6% native gels using a standard protocol (Y. Jv, B. Li and R. Cao, Chem. Commun., 2010, 46, 80178019). The samples which formed the dimerization and inhibited the dimerization were loaded into the 6% native gel running at a voltage of 10 V cm^−1.

Experiment [3] has as its target T2, STAT3 protein. Kind of experiment: Single nanoplasmonic biosensor (LSPR shift), inhibition of STAT3 dimerization with recombinant STAT3. It is filed as biochemical. Also on record: purchased Sigma Aldrich (Korea). The procedure:
Individual amino-modified AuNPs, ˜50 nm AuNPs, were immobilized onto a glutaraldehyde coated coverslip slide (22×40×0.1 mm) by dropping 10 μL of the dilute amino-modified AuNP solution (FIG. 2). The glass slide was mounted to an RC-30HV closed-bath imaging chamber (Warner Instruments, USA) to visualize the AuNPs after the addition of adsorbates and reactants. The imaging chamber (Warner Instruments, USA) was subsequently inserted onto the holder of the darkfield microscope (Eclipse TE2000-U, Nikon, Japan), and the fluidic flow was set at 100 μL min^−1 by connection to a syringe pump (Harvard Apparatus).
Subsequently, the phosphorylation and the dimerization of STAT3 were conducted as follows. In the first step, after ˜50 nm AuNPs were immobilized onto a coverslip slide, all unbound AuNPs and contaminants were removed, and the surface of the amino-modified AuNPs was cleaned by injecting nuclease-free water for 1 h. […]
as §1

T2 sequence (P40763 whole entry): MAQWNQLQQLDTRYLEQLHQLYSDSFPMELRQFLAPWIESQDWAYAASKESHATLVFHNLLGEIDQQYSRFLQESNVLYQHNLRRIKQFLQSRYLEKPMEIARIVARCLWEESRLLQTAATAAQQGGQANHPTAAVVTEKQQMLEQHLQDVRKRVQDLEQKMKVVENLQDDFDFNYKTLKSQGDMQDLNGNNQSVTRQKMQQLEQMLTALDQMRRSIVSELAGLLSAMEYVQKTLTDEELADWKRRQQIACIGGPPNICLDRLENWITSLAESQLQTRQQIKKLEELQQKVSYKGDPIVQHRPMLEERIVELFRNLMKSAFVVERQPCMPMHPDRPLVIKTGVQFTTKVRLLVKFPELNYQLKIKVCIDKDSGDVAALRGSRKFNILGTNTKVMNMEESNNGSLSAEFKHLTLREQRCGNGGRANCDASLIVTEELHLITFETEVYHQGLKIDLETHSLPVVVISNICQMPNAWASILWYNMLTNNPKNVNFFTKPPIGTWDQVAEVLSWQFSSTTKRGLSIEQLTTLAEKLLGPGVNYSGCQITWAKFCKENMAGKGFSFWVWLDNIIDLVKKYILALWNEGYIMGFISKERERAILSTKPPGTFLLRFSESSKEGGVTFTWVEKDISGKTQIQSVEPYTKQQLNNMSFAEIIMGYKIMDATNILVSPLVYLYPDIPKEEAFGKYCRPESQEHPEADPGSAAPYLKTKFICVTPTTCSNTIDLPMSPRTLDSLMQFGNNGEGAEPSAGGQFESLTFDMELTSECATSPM
T1 sequence (P40763 2-770 limits assumed): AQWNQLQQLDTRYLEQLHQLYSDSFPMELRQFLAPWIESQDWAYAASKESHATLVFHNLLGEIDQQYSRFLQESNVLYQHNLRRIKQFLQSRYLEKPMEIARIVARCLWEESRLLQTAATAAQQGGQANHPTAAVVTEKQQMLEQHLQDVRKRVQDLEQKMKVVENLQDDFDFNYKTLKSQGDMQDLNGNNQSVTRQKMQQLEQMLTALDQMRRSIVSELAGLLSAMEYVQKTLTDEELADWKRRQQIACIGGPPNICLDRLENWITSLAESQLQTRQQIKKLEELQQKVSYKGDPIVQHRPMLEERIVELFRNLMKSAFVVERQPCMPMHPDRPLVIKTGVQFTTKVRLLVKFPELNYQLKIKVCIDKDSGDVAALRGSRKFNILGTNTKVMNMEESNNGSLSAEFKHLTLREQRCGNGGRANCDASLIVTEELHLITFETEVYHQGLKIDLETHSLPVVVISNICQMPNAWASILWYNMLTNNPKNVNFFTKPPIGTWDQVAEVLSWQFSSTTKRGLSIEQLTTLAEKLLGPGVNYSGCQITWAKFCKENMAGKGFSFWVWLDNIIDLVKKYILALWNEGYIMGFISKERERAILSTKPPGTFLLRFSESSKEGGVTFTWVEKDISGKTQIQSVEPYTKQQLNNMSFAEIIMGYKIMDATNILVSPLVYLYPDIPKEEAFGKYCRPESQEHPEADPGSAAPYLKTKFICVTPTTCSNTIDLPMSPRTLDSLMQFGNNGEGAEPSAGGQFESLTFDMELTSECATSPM

Consider `C[C@@H]1CC(=O)c2c(ccc3c2C(=O)c2cccc(O)c2C3=O)C1` [STA-21], for which, in experiment [1] (STAT3 from MCF-7 cells treated with STA-21), the STAT3 dimer formation entry is recorded as “did not form a STAT3 dimer”. Further, the “red shift of the LSPR λmax for the dimerization step in the presence of inhibitor” value in experiment [1] (STAT3 from MCF-7 cells treated with STA-21 for 24 h, 10.00 nm in the absence, FIG. 4C) is 3.34 nm. In experiment [2], the “STAT3 species observed by Native PAGE” value was 90 kDa monomer. Further, the “red shift of the LSPR λmax in the dimerization step in the presence of inhibitor” value in experiment [3] (STA-21 1 μM, recombinant STAT3 protein, 9.00 nm in the absence, FIG. 4C) worked out at 2.65 nm. Besides, the STAT3 dimerization inhibited in experiment [3] (STA-21 at 10^3 nM, recombinant STAT3) was 100%.
